Data on ten compounds can be found in patent US7875619B2, “Hetero substituted sodium channel blockers” (Parion Sciences, Inc., priority 2004, dated 2011).

SMILES strings stand for the structures. Counter-ions that a name gives are not always drawn.

The target of data set [1] is T1, sodium channel (ENaC), canine bronchial epithelia (Canis lupus familiaris, UniProt A0A8I3MKE6+A0A8I3Q679+Q95165).
T1 construct: endogenous in cells; host or cells: primary canine bronchial epithelial cells cultured at air-liquid interface, mounted in Ussing chambers
T1 sequence (A0A8I3Q679 1-649): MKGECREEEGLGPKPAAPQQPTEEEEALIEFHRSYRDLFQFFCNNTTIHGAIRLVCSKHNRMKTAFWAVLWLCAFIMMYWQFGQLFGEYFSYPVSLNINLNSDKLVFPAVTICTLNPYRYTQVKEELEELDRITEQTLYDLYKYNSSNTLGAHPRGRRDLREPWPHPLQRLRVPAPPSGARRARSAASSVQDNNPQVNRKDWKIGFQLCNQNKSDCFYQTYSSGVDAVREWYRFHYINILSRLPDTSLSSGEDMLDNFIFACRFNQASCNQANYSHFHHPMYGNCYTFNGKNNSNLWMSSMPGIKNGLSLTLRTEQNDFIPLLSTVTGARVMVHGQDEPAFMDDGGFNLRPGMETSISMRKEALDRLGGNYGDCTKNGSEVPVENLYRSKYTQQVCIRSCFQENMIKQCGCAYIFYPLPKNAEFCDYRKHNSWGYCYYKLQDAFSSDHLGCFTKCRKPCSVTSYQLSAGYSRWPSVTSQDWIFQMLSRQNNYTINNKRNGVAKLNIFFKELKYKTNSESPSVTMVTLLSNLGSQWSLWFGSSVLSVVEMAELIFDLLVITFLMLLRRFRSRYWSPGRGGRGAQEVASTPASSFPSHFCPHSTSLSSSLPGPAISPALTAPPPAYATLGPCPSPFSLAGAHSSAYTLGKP
T1 sequence (Q95165 1-641): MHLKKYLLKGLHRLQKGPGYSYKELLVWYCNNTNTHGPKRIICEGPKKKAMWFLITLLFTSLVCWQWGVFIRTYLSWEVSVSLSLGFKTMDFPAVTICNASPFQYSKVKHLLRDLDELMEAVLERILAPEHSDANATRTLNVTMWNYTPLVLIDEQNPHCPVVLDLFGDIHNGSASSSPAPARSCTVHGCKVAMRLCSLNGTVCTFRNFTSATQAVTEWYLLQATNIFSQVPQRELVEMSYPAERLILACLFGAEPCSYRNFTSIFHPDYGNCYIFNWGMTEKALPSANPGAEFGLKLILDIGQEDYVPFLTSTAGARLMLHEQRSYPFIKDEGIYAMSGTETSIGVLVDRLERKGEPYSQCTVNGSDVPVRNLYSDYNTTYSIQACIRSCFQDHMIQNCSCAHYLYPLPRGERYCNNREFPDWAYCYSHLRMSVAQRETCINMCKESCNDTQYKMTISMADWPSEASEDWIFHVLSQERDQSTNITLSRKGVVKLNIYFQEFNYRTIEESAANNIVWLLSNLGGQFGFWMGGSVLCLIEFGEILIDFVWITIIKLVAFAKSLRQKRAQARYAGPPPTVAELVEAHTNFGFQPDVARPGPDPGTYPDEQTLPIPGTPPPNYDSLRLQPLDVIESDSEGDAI
T1 sequence (A0A8I3MKE6 1-646): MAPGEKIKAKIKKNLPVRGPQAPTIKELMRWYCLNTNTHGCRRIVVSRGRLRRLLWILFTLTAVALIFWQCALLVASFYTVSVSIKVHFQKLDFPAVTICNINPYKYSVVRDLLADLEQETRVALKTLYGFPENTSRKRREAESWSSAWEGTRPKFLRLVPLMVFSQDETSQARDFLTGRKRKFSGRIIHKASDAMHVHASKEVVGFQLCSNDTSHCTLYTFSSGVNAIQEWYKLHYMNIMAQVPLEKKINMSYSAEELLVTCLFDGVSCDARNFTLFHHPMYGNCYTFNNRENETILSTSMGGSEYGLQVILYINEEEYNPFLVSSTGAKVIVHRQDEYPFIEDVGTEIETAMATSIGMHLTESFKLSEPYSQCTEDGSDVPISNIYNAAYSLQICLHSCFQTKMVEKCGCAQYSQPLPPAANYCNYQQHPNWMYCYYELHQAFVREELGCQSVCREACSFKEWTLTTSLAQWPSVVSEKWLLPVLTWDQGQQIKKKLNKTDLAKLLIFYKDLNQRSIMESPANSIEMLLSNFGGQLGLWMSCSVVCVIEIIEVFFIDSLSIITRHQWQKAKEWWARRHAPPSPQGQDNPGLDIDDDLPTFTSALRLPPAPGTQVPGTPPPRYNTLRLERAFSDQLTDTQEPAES
In words: In vitro measure of sodium channel blocking activity: inhibition of short circuit current (ISC) in airway epithelial monolayers in Ussing chambers. Type of data set: cell-based. The settings on record: mean of N runs; for Fold Amiloride** (PSA 4022 = 100) Mean: relative potency for PSA 4022 = 100 using EC50 from PSA 4022 in same run. How it is done: One assay used to assess mechanism of action and/or potency of the compounds of the present invention involves the determination of lumenal drug inhibition of airway epithelial sodium currents measured under short circuit current (ISC) using airway epithelial monolayers mounted in Ussing chambers. Cells obtained from freshly excised human, dog, sheep or rodent airways are seeded onto porous 0.4 micron Snapwell™ Inserts (CoStar), cultured at air-liquid interface (ALI) conditions in hormonally defined media, and assayed for sodium transport activity (ISC) while bathed in Krebs Bicarbonate Ringer (KBR) in Using chambers. All test drug additions are to the lumenal bath with half-log dose addition protocols (from 1×10^−11 M to 3×10^−5M), and the cumulative change in ISC (inhibition) recorded. All drugs are prepared in dimethyl sulfoxide as stock solutions at a concentration of 1×10^−2 M and stored at −20° C. […] After the maximal concentration (5×10^−5 M) is administered, the lumenal bath is exchanged three times with fresh drug-free KBR solution, and the resultant ISC measured after each wash for approximately 5 minutes in duration. Reversibility is defined as the percent return to the baseline value for sodium current after the third wash. All data from the voltage clamps are collected via a computer interface and analyzed off-line.
Dose-effect relationships for all compounds are considered and analyzed by the Prism 3.0 program.
PSA 4022 was also tested in each assay as a positive control.

Usually melting point stands for the temperature, or range, at which the solid turns liquid. `COC(=O)C(N)CCOc1ccc(CCCCNC(=N)NC(=O)c2nc(Cl)c(N)nc2N)cc1` (stereo not drawn) (as salt: hydrochloride) [PSA 17587, 2-amino-4-(4-{4-[N′-(3,5-diamino-6-chloropyrazine-2-carbonyl)-guanidino]butyl}phenoxy)butyric acid methyl ester hydrochloride] had a melting point of 88 to 90 °C.

Turning to `N=C(NCCCCc1ccc(OCCNCC(N)C(N)=O)cc1)NC(=O)c1nc(Cl)c(N)nc1N` (stereo not drawn) (as salt: hydrochloride) [PSA 18704, 2-amino-3-[2-(4-{4-[N′-(3,5-diamino-6-chloropyrazine-2-carbonyl)-guanidino]butyl}phenoxy)ethylamino]propionamide tri-hydrochloride], the melting point amounted to 160 °C.

As a reminder, the EC50 is the concentration giving half of the maximal effect. The low end stands for an effect from little substance, the high end for a need for much substance. Consider `COC(=O)C(N)CCOc1ccc(CCCCNC(=N)NC(=O)c2nc(Cl)c(N)nc2N)cc1` (stereo not drawn) [PSA 17587, 2-amino-4-(4-{4-[N′-(3,5-diamino-6-chloropyrazine-2-carbonyl)-guanidino]butyl}phenoxy)butyric acid methyl ester hydrochloride], for which, in data set [1], the EC50 was 19.4 nM and the “Fold Amiloride** (PSA 4022 = 100) Mean” value is on record as 31.3.

Compound `N=C(NCCCCc1ccc(OCCC(N)C(=O)O)cc1)NC(=O)c1nc(Cl)c(N)nc1N` (stereo not drawn) [PSA 17666, 2-amino-4-(4-{4-[N′-(3,5-diamino-6-chloropyrazine-2-carbonyl)-guanidino]butyl}phenoxy)butyric acid] showed a melting point of 178 to 180 °C. Besides, in data set [1], the EC50 is 29.3 nM and the “Fold Amiloride** (PSA 4022 = 100) Mean” value came to 34.8.

In the case of `N=C(NCCCCc1ccc(NCCCC(N)=O)cc1)NC(=O)c1nc(Cl)c(N)nc1N` [PSA 18150, 4-(4-(4-[N′-(3,5-diamino-6-chloropyrazine-2-carbonyl)guanidino]-butyl}phenylamino)butyramide dihydrochloride], in data set [1], the EC50 came to 23.8 nM and the “Fold Amiloride** (PSA 4022 = 100) Mean” value stood at 44.4.

On to `N=C(NCCCCc1ccc(NCCCC(=O)O)cc1)NC(=O)c1nc(Cl)c(N)nc1N` [PSA 18345, 4-(4-{4-[N′-(3,5-diamino-6-chloropyrazine-2-carbonyl)guanidino]-butyl}phenylamino)butyric acid], for which, in data set [1], the EC50 amounted to 69 nM and the “Fold Amiloride** (PSA 4022 = 100) Mean” value was 12 .4.

Regarding `N=C(NCCCCc1ccc(OCCNCC(N)C(N)=O)cc1)NC(=O)c1nc(Cl)c(N)nc1N` (stereo not drawn) [PSA 18704, 2-amino-3-[2-(4-{4-[N′-(3,5-diamino-6-chloropyrazine-2-carbonyl)-guanidino]butyl}phenoxy)ethylamino]propionamide tri-hydrochloride], in data set [1], the EC50 is 14.1 nM and the “Fold Amiloride** (PSA 4022 = 100) Mean” value was determined as 90.2.

For the compound `COC(=O)[C@H](N)CCCc1ccc(CCCCNC(=N)NC(=O)c2nc(Cl)c(N)nc2N)cc1` [PSA 19603, 2-(R)-amino-5-(4-{4-[N′-(3,5-diamino-6-chloropyrazine-2-carbonyl)-guanidino]butyl}phenyl)pentanoic acid methyl ester], the melting point was in the range of 76 to 79 °C. For the same compound, in data set [1], the EC50 is 32.3 nM and the “Fold Amiloride** (PSA 4022 = 100) Mean” value is on record as 39.4.

`N=C(NCCCCc1ccc(SCCC(N)=O)cc1)NC(=O)c1nc(Cl)c(N)nc1N` [PSA 19605, 3-(4-{4-[N′-(3,5-diamino-6-chloropyrazine-2-carbonyl)guanidino]butyl}phenylthio)propionamide]: in data set [1], the EC50 worked out at 4.7 nM and the “Fold Amiloride** (PSA 4022 = 100) Mean” value turned out to be 145.

For `N=C(NCCCCc1ccc(CCC[C@@H](N)C(=O)O)cc1)NC(=O)c1nc(Cl)c(N)nc1N` [PSA 23184, 2-(R)-amino-5-(4-{4-[N′-(3,5-diamino-6-chloropyrazine-2-carbonyl)-guanidino]butyl}phenyl)pentanoic acid], the melting point is 190 to 192 °C (dec.). Also, in data set [1], the EC50 is 17 nM and the “Fold Amiloride** (PSA 4022 = 100) Mean” value worked out at 43.3.
